Here are results for 14 molecules from patent publication US20260078120A1, “SUBSTITUTED PYRIDOPYRIMIDINONES” (MIRATI THERAPEUTICS, INC., priority 2022, published 2026).

Molecules are shown by their SMILES.

Type in all cases: cell-based
Assay [1] deals with MKN1 (PI3Kα E545K mutant) cells. In words: CellTiter-Glo 2.0 luminescent cell viability assay, 72 hours, MKN1 cells. The settings on record: Homo sapiens, MKN-1; MKN1 (PI3Kα E545K mutant) cells, CellTiter-Glo, approximately 72 hours; read-out: MKN1 (E545K) Viability IC50. As for the experimental part:
This Example illustrates that exemplary compounds of the present invention decrease the viability of cells.
The ability of a compound of Formula (I) to decrease the viability of cells was measured using CellTiter-Glo 2.0 (CTG) Luminescent Cell Viability Assay (#G9241) obtained from Promega (Madison, WI).
To prepare assay plates for viability assays, cells were trypsinized, resuspended in fresh media, and viable cells were counted utilizing trypan blue exclusion. T47D, SKBR3, or MKN1 cells were seeded at 1000 cells in 30 μl per well in a solid white flat bottom 384 cell culture plate (Perkin Elmer #6007680) and incubated at 37° C. overnight.
Assay day 1, cells were dosed using an Echo Liquid Handler (Beckman Coulter) with compounds at a 10 um starting concentration and serially diluted (1:4) for a total of 10 concentrations. Cells were incubated for approximately 72 hours with the compounds (solubilized in DMSO) at 37° C. After 72 hours of treatment, cell plates were equilibrated to room temperature before adding 15 μl of CTG to each well, plates were then covered in aluminum foil to protect from light, incubated at room temperature for 30 minutes on a microtiter plate shaker, and luminescence readings were collected using a CLARIOstar microplate reader (BMG Labtech, Germany). Percent of vehicle control values were plotted as log (inhibitor) vs. response-Variable slope (four parameters) for curve fitting and IC50 values were determined using XLfit.

In assay [2] the test system is SKBR3 (PI3Kα wild type) cells. Nature of the assay: CellTiter-Glo 2.0 luminescent cell viability assay, 72 hours, SKBR3 cells. To be noted: Homo sapiens, SK-BR-3, 72 h, SKBR3 (PI3Kα wild type) cells, CellTiter-Glo, approximately 72 hours; read-out: SKBR3 (WT) Viability IC50. The method in brief: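 Viability measured via CTG luminescence following roughly 72 hours of compound exposure at 37° C. Dosing used a 10 um starting concentration diluted 1:4 over 10 points; percent-of-vehicle data fitted with a variable-slope four-parameter model for IC50.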

The test system of assay [3] is T47D (PI3Kα H1047R mutant) cells. Nature of the assay: CellTiter-Glo 2.0 luminescent cell viability assay, 72 hours, T47D cells. The settings on record: Homo sapiens, T47D, 72 h, T47D (PI3Kα H1047R mutant) cells, CellTiter-Glo, approximately 72 hours; read-out: T47D (H1047R mutant) Viability IC50. Summed up:
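Viability was measured by CellTiter-Glo 2.0 luminescence after approximately 72 h of compound exposure at 37° C. Plating was 1000 cells per well the day before dosing, with ten 1:4 dilutions from a 10 µM top concentration. Values as percent of vehicle were fitted by variable-slope log(inhibitor) regression to give IC50.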

Assay [4] shares this test system. In words: Inhibition of pAKT formation, alphaLISA SureFire Ultra AKT 1/2/3 (pS473), T47D cells. The settings on record: Homo sapiens, T47D, T47D (PI3Kα H1047R mutant) cells; inhibition of pAKT (pS473) formation; approximately one hour or 24 hours treatment; read-out: T47D pAKT (H1047R mutant) IC50. Summed up:
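AKT Ser473 phosphorylation was quantified by alphaLISA SureFire Ultra after roughly 1 h or 24 h compound exposure at 37 °C. Cells were T47D (12,000/well in HBSS), treated with a 10-point 1:4 series starting at 10.4 μM. Percent of control used alpelisib background and DMSO reference, and IC50 came from four-parameter logistic fitting.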

Assay [5] has as its system MKN1 (PI3Kα E545K mutant) cells. Nature of the assay: Inhibition of pAKT formation, alphaLISA SureFire Ultra AKT 1/2/3 (pS473), MKN1 cells. The settings on record: Homo sapiens, MKN-1; MKN1 (PI3Kα E545K mutant) cells; inhibition of pAKT (pS473) formation; approximately one hour or 24 hours treatment; read-out: MKN1 (E545K) pAKT IC50. As for the experimental part:
(§1) The ability of a compound of Formula (I) to inhibit the formation of pAKT was measured using alphaLISA Surefire Ultra AKT 1/2/3 (pS473) Assay Kit (#ALSU-PAKT-B50K) was obtained from Perkin Elmer (Waltham, MA).
(§2) To prepare assay plates for pAKT alphaLISA assays, cells were trypsinized, resuspended in fresh media, and viable cells were counted utilizing trypan blue exclusion. Prior to seeding, cells were washed with PBS and resuspended in HBSS (Gibco, #14025092). T47D (12,000/w), SKBR3(12,000/w), or MKN1(24,000/w) cells were seeded at 12 μl per well in a solid white flat bottom 384 cell culture plate (Perkin Elmer #6007680).
(§3) Immediately after seeding, cells were dosed using an Echo Liquid Handler (Beckman Coulter) with compounds at a […] starting concentration and serially diluted (1:4) for a total of 10 concentrations. […] Cells were incubated with the compounds (solubilized in DMSO) for approximately one hour or 24 hours at 37° C. After one hour (or 24 hours) of treatment, cells were lysed with 3 μl of the 5× lysis buffer (provided and incubated at room temperature for 15 min on a microtiter plate shaker). Once cells were sufficiently lysed, 7.5 μl of the acceptor bead mix (made using the manufacturers recommended dilutions) was added to each well and left on the microtiter plate shaker for 1 min prior to incubating plates at room temperature for one hour, in the absence of light. After one hour of incubation with the acceptor bead mix, 7.5 μl of the donor bead mix (made using the manufacturers recommended dilutions) was added to each well and left on the microtiter plate shaker for 1 min prior to incubating plates at room temperature overnight in the absence of light. Plates were then imaged the following day using a CLARIOstar microplate reader (BMG Labtech, Germany).
(§4) Percent of control values were calculated by subtracting the average signal from the positive control (alpelisib) treated wells from all treated wells (including DMSO control wells) and then divided by the average signal from the vehicle DMSO treated control wells. Percent of vehicle control values were plotted as log (inhibitor) vs. response-Variable slope (four parameters) for curve fitting and IC50 values were determined using XLfit.
(§5) Key: N.D. =not determined

Assay [6] deals with SKBR3 (PI3Kα wild type) cells. In words: Inhibition of pAKT formation, alphaLISA SureFire Ultra AKT 1/2/3 (pS473), SKBR3 cells. The settings on record: Homo sapiens, SK-BR-3; Inhibition of pAKT in SKBR3 (PI3Kα wild type) cells; read-out: SKBR3 (WT) pAKT IC50 (nM) (H1047R mutant) IC50. The protocol: as §1, §2, §3, §4, §5

Turning to `Cc1cc(C(C)Nc2ccc(O)cc2C(=O)O)c2nc(N3CCCCC3)cc(=O)n2c1` (centres unmarked) [Example 3-6, 5-hydroxy-2-((1-(7-methyl-4-oxo-2-(piperidin-1-yl)-4H-pyrido[1,2-a]pyrimidin-9-yl)ethyl)amino)benzoic acid], the IC50 in assay [1] was > 10 µM; in assay [2] it was > 10 µM; in assay [3] it was > 10 µM; in assay [4], > 10000 nM; in assay [5], > 10 µM; in assay [6] it was 2670 nM.

In the case of `Cc1cc(C(C)Nc2ccccc2C#N)c2nc(N3CCCCC3)cc(=O)n2c1` (centres unmarked) [Example 3-11, 2-((1-(7-methyl-4-oxo-2-(piperidin-1-yl)-4H-pyrido[1,2-a]pyrimidin-9-yl)ethyl)amino)benzonitrile], the IC50 in assay [1] was > 10 µM; in assay [2] it was > 10 µM; in assay [3], > 10 µM; in assay [4], > 10000 nM; in assay [5] it was > 10 µM; in assay [6] it was > 10000 nM.

Consider `Cc1cc(C(C)Nc2ccccc2C(N)=O)c2nc(N3CCCCC3)cc(=O)n2c1` (centres unmarked) [Example 3-13, 2-((1-(7-methyl-4-oxo-2-(piperidin-1-yl)-4H-pyrido[1,2-a]pyrimidin-9-yl)ethyl)amino)benzamide], for which the IC50 in assay [1] was > 10 µM; in assay [2], > 10 µM; in assay [3], > 10 µM; in assay [4], 1060 nM; in assay [5], 3.99 µM; in assay [6] it was > 10000 nM.

For `Cc1cc([C@H](C)Nc2ccccc2C(=O)O)c2nc(N3CCC(C)(C)CC3)cc(=O)n2c1` (single isomer, unassigned) [Example 5-4], the IC50 was > 10 µM in assay [1]; > 10 µM in assay [2]; 0.98 µM in assay [3]; 13.5 nM in assay [4]; 1.95 µM in assay [5]; 7070 nM in assay [6].

In the case of `Cc1cc([C@@H](C)Nc2ccccc2C(=O)O)c2nc(N3CCC(C)(C)CC3)c(C)c(=O)n2c1` (single isomer, unassigned) [Example 5-1], the half-inhibitory concentration (IC50) in assay [1] is > 10 µM; in assay [2], > 10 µM; in assay [3] it was 0.461 µM; in assay [4], 30 nM; in assay [5], 1.39 µM; in assay [6], 1820 nM.

Take `Cc1cc(C(C)Oc2ccccc2C(=O)O)c2nc(N3CCCCC3)cc(=O)n2c1` (centres unmarked) [Example 3-9, 2-(1-(7-methyl-4-oxo-2-(piperidin-1-yl)-4H-pyrido[1,2-a]pyrimidin-9-yl)ethoxy)benzoic acid]: the IC50 was > 10 µM in assay [1]; > 10 µM in assay [2]; > 10 µM in assay [3]; > 10000 nM in assay [4]; > 10 µM in assay [5]; 583 nM in assay [6].

For the molecule `Cc1cc(C(C)Nc2ccccc2C(=O)O)c2nc(N3CCC4(CC3)CC4)cc(=O)n2c1` (centres unmarked) [Example 3-22, 2-((1-(7-methyl-4-oxo-2-(6-azaspiro[2.5]octan-6-yl)-4H-pyrido[1,2-a]pyrimidin-9-yl)ethyl)amino)benzoic acid], the IC50 in assay [2] is 0.799 µM; in assay [3], 1.64 µM; in assay [4], 70.5 nM; in assay [5], 3.25 µM; in assay [6], > 10000 nM.

For `Cc1cc([C@H](C)Nc2ccccc2C(=O)O)c2nc(N3CCC(C)(C)CC3)c(C)c(=O)n2c1` (single isomer, unassigned) [Example 5-2], the half-inhibitory concentration (IC50) is > 10 µM in assay [2]; 9.03 µM in assay [3]; > 10000 nM in assay [4]; > 10 µM in assay [5]; > 10000 nM in assay [6].

With `Cc1cc(C(C)N(C)c2ccccc2C(=O)O)c2nc(N3CCCCC3)cc(=O)n2c1` (centres unmarked) [Example 3-21, 2-(methyl(1-(7-methyl-4-oxo-2-(piperidin-1-yl)-4H-pyrido[1,2-a]pyrimidin-9-yl)ethyl)amino)benzoic acid], the values for the IC50 in assay [4] and in assay [5] were > 10000 nM and > 10 µM, respectively.

`Cc1cc(C(C)Sc2ccccc2C(=O)O)c2nc(N3CCCCC3)cc(=O)n2c1` (centres unmarked) [Example 3-10, 2-((1-(7-methyl-4-oxo-2-(piperidin-1-yl)-4H-pyrido[1,2-a]pyrimidin-9-yl)ethyl)thio)benzoic acid]: the half-maximal inhibitory concentration (IC50) in assay [2] is > 10 µM; in assay [3] it was > 10 µM; in assay [4], 2510 nM; in assay [5], > 10 µM; in assay [6], > 10000 nM.

Regarding `Cc1cc(C(C)Nc2cccc(O)c2C(=O)O)c2nc(N3CCCCC3)cc(=O)n2c1` (centres unmarked) [Example 3-4, 2-hydroxy-6-((1-(7-methyl-4-oxo-2-(piperidin-1-yl)-4H-pyrido[1,2-a]pyrimidin-9-yl)ethyl)amino)benzoic acid], the figures for the 50% inhibitory concentration (IC50) in assay [4], in assay [5] and in assay [6] were 2280 nM, 8.83 µM and > 10000 nM, respectively.

For `Cc1cc([C@@H](C)Nc2nccnc2C(=O)O)c2nc(N3CCC(F)(F)CC3)c(C#N)c(=O)n2c1` [Example 10-63, (R)-3-((1-(3-cyano-2-(4,4-difluoropiperidin-1-yl)-7-methyl-4-oxo-4H-pyrido[1,2-a]pyrimidin-9-yl)ethyl)amino)pyrazine-2-carboxylic acid], the IC50 in assay [2] is > 10 µM; in assay [3] it was 3.73 µM; in assay [4], 144 nM; in assay [6], > 10000 nM.

On to `Cc1cc([C@@H](C)Nc2ccccc2C(=O)O)c2nc(C3CCC(F)(F)CC3)c(C#N)c(=O)n2c1` [Example 10-65, (R)-2-((1-(3-cyano-2-(4,4-difluorocyclohexyl)-7-methyl-4-oxo-4H-pyrido[1,2-a]pyrimidin-9-yl)ethyl)amino)benzoic acid], for which the IC50 in assay [2] was > 10 µM; in assay [3] it was 0.246 µM; in assay [4] it was 3.25 nM; in assay [6] it was 681 nM.

In the case of `Cc1cc([C@@H](C)Nc2ccccc2C(=O)O)c2nc(N3CC4(C3)CC(F)(F)C4)c(C#N)c(=O)n2c1` [Example 10-66, (R)-2-((1-(3-cyano-2-(6,6-difluoro-2-azaspiro[3.3]heptan-2-yl)-7-methyl-4-oxo-4H-pyrido[1,2-a]pyrimidin-9-yl)ethyl)amino)benzoic acid], the IC50 in assay [2] was > 10 µM; in assay [3], > 10 µM; in assay [4], 1370 nM; in assay [6], > 10000 nM.
